“Also recorded” adds a separate entry of the source. Where a SMILES comes first, the peptide text is derived from it. The star is where a group is joined. Cbz = O=C(OCc1ccccc1)*
Key:
LNCaP-s17 cells [1] = experiment: Cell growth assay; format: cell-based, human
AR-V7 = molecular target: T1, AR-V7 (Homo sapiens, UniProt P10275); experiment: AR-V7 protein degradation after cycloheximide block in CWR22rv1 cells; format: cell-based; details: MG132 5 μM, cycloheximide 50 μg/mL, 2 μM niclosamide, 8 h
T1 construct: CWR22rv1 cells, which express high endogenous AR-V7; endogenous in cells; host or cells: CWR22rv1
T1 sequence (P10275 1-644 isoform P10275-3): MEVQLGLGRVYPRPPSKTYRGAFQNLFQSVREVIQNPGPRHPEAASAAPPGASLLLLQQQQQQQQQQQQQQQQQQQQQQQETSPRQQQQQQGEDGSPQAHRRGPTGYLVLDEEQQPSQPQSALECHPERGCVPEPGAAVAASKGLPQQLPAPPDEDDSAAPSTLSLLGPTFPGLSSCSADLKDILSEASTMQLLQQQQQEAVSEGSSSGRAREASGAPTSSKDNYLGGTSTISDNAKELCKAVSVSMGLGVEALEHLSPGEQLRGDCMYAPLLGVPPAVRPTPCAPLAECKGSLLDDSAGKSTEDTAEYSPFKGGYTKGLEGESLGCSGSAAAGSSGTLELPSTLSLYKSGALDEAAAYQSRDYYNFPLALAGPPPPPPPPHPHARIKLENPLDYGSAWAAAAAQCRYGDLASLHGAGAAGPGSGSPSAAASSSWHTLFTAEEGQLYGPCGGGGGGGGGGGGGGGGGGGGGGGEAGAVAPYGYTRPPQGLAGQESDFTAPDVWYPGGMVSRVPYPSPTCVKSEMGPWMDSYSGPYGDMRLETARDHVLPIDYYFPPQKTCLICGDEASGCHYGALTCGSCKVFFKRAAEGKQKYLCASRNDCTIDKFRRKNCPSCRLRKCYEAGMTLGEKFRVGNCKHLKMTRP
Experimental: At specified time points, cells were harvested, and the levels of AR-V7 protein were measured by Western blot using antibodies specific against AR-V7. […] The cell lysates were prepared at 8 h. AR-V7 protein levels were determined by Western blot analysis using antibodies specifically against AR-V7 and tubulin as a control.
At specified time points, cells were harvested, and the levels of AR-V7 protein were measured by Western blot using antibodies specific against AR-V7.

[2] = system: recruitment of AR-V7 to PSA promoter; experiment: ChIP assay in C4-2 AR-V7 cells; format: cell-based; details: CS-FBS 3 days, niclosamide (0.5 μM and 1 μM) or 20 μM enzalutamide overnight
Experimental: C4-2 neo and C4-2 AR-V7 cells were treated as noted herein. DNA-AR protein complexes were cross-linked inside the cells by the addition of 1% formaldehyde. Whole-cell extracts were prepared by sonication, and an aliquot of the cross-linked DNA-protein complexes was immunoprecipitated by incubation with the AR-specific antibody (AR-441 obtained from Santa Cruz Biotechnology) overnight at 4° C. with rotation. Chromatin-antibody complexes were isolated from solution by incubation with protein A/G agarose beads for 1 hour at 4° C. with rotation. The bound DNA-protein complexes were washed and eluted from beads with elution buffer (1% SDS and 0.1 mol/L NaHCO3), crosslinking was reversed, and DNA was extracted. The resulting chromatin preparations were analyzed by PCR using primers spanning either the proximal or the distal enhancer AREs of the PSA promoter. Isotype-matched IgG was used as control.

C4-2B MR cells [3] = experiment: Cell growth assay; format: cell-based; details: different concentrations, 48 hours
Experimental: (§1) Total cell numbers were counted and the cell survival rate (%) was calculated. Cell survival rate (%)=(Treatment group cell number/Control group cell number)×100%. […] Total cell numbers were counted after 2, 4, and 7 days. […] The cells were treated as indicated and total cell numbers were counted.

CWR22rv1 xenografts = experiment: CWR22rv1 xenograft tumor growth in SCID mice; format: in vivo; details: 3 weeks
Experimental: (§2) CWR22rv1 cells (3 million) were mixed with matrigel (1:1) and injected subcutaneously into the flanks of 6-7 week male SCID mice. […] Tumors were measured using calipers twice a week and tumor volumes were calculated using length×width2/2. Tumor tissues were harvested after 3 weeks of treatment.
Tumors were measured using calipers twice a week and tumor volumes were calculated using length×width2/2. Tumor tissues were harvested after 3 weeks of treatment. The results are depicted in FIGS. 40A-40D.
as §2, with “For the in vivo experiment, CWR22Rv1” for “CWR22rv1”, “(4” for “(3”, “of” for “of 6-7 week”, “treatment. The results are depicted in FIGS. 42A-42D.” for “treatment.”
CWR22Rv1 cells (4 million) were mixed with matrigel (1:1) and injected subcutaneously into the flanks of 6-7 week male SCID mice. […] Tumors were measured using calipers twice a week and tumor volumes were calculated using length×width2/2. Tumor tissues were harvested after 3 weeks of treatment.

STAT3 [4] = experiment: STAT3 activation in LNCaP-s17 cells; format: cell-based, human
Experimental: (§4) Whole cell protein extracts were resolved on SDS-PAGE and proteins were transferred to nitrocellulose membranes. […] Tubulin was used to monitor the amounts of samples applied. Following secondary antibody incubation, immunoreactive proteins were visualized with an enhanced chemiluminescence detection system (Millipore, Billerica, Mass.).

PSA [5] = experiment: Western blot of PSA protein in C4-2 AR-V7 cells; format: cell-based; details: CS-FBS, 1.0 μM niclosamide or 20 μM enzalutamide overnight
Experimental: as §4

AR = experiment: PSA luciferase assay in LNCaP cells, DHT induced; format: cell-based, human; details: niclosamide or enzalutamide with DHT overnight
Text: LNCaP, C4-2 or 293 cells were transfected with pGL3-PSA6.0-Luc, pGL3-AREI/II-Luc reporters along with AR-V7, for example as indicated in the figures, in FBS or CS-FBS condition. Cell lysates were subjected to luciferase assays with the Luciferase Assay System (Promega).

cancer cells = details: some reports suggest; cited from earlier work
prostate cancer cells = experiment: Cell growth, migration, invasion and colony formation (FIGS. 16-19); format: cell-based; details: effect appears to be dose dependent
[6] = system: C4-2B and C4-2B AbiR cells; experiment: Growth or viability (FIG. 23); format: cell-based
LNCaP-s17 cells [7] = experiment: Cell migration or invasion (FIG. 24); format: cell-based, human
PSA [8] = experiment: PSA ELISA of culture supernatants of C4-2 AR-V7 cells; format: cell-based; details: CS-FBS, 1.0 μM niclosamide overnight
Experimental: PSA levels were measured in the culture supernatants using ELISA (United Biotech, Inc., Mountain View, Calif.) according to the manufacturer's instructions.

C4-2B MR cells [9] = experiment: Clonogenic assay; format: cell-based
LNCaP-STAT3C cells = experiment: Cell migration or invasion (FIG. 25); format: cell-based, human
STAT3 [10] = details: DU145 cells, shown previously; cited from earlier work
C4-2B and C4-2B MR cells = experiment: Growth or viability (FIG. 22); format: cell-based
normal cells = details: some reports suggest; cited from earlier work
[11] = system: cancer cell metastasis and migration; details: in vitro and in vivo, reported; cited from earlier work
CWR22rv1 cells [12] = experiment: Clonogenic assay
CWR22rv1 cells [13] = experiment: Cell growth assay; format: cell-based; details: dose and time dependent
Experimental: Total cell numbers were counted after 3 or 5 days. […] Total cell numbers were counted or the cell survival rate (%) was calculated. Cell survival rate (%)=(Treatment group cell number/Control group cell number)×100%.

[14] = system: prostate cancer cells (C4-2 neo, C4-2 AR-V7, CWR22rv1); experiment: Cell growth assay (cell numbers counted, cell survival rate); format: cell-based; details: 0.5 μM niclosamide, 48 hours, media containing FBS
Experimental: as §1

[15] = system: pz-HPV7 normal prostate epithelial cells; experiment: as above; format: cell-based; details: 0.5 μM niclosamide, 48 hours
Experimental: as §1

[16] = system: prostate cancer cells (CWR22rv1, C4-2 AR-V7, C4-2 neo); experiment: Clonogenic assay; format: cell-based; details: 0, 0.5, 1.0 μM niclosamide
[17] = system: prostate cancer cells (C4-2 neo, C4-2 AR-V7, CWR22rv1); experiment: Cell death ELISA (apoptosis); format: cell-based; details: 0.5 μM niclosamide, 48 hours
Experimental: (§3) Floating and attached cells were collected and homogenized in 400 μL of incubation buffer. The wells were coated with antihistone antibodies and incubated with the lysates, horseradish peroxidase-conjugated anti-DNA antibodies, and the substrate. Absorbance was measured at 405 nm.

pz-HPV7 cells = experiment: Cell death ELISA (apoptosis); format: cell-based; details: 0.5 μM niclosamide, 48 hours
Experimental: as §3

[18] = C4-2B MR cells, 0.5 μM or 1.0 μM niclosamide, 10 μM or 20 μM enzalutamide

SMILES: N#C/C(=C/c1ccc(O)c(O)c1)C(=O)NCc1ccccc1 [AG490]
- reversal of enzalutamide resistance (LNCaP-s17 cells [1]; 10 μM AG490 with 20 μM enzalutamide, 48 h): reverse enzalutamide resistance

SMILES: CC(C)C[C@@H](C=O)NC(=O)[C@H](CC(C)C)NC(=O)[C@H](CC(C)C)NC(=O)OCc1ccccc1 [MG132] (Cbz-Leu-Leu-Leu-aldehyde)
- niclosamide effect on AR-V7 protein levels in presence of MG132 (AR-V7): able to retard the niclosamide effect on AR-V7 protein levels

SMILES: O=C(Nc1ccc([N+](=O)[O-])cc1Cl)c1cc(Cl)ccc1O [niclosamide, (5-chloro-N-2chloro-4-nitro-phenyl)-2-hydroxybenzamide]
- recruitment of AR-V7 to PSA promoter [2]: significantly reduced recruitment of AR-V7 to PSA promoter
- cell growth (total cell numbers) (C4-2B MR cells [3]): significantly inhibited; also recorded: inhibited C4-2B MR cell growth in a dose dependent manner
- enhancement of bicalutamide effects in vivo (CWR22rv1 xenografts; bicalutamide 25 mg/kg p.o. + niclosamide 25 mg/kg i.p., 5 days per week): enhanced bicalutamide treatment; also recorded: significantly enhanced bicalutamide effects
- tumor volume (CWR22rv1 xenografts; enzalutamide 25 mg/kg p.o., niclosamide 25 mg/kg i.p., or both): decreased the tumor volume
- xenograft tumor growth (CWR22rv1 xenografts; niclosamide 200 mg/kg p.o. B.I.D., 5 days per week): significantly inhibited Rv1 xenograft tumor growth
- STAT3 activation (STAT3 [4]): significantly inhibited STAT3 activation; also recorded: inhibited constitutively active STAT3 in a dose dependent manner
- PSA protein expression (western blot) (PSA [5]): significantly inhibited PSA protein expression
- DHT induced AR transcriptional activity (AR): dramatically inhibited DHT induced AR transcriptional activity
- cell growth, time dependent experiment (LNCaP-s17 cells [1]; 20 μM enzalutamide and 0.25 μM niclosamide individually or in combination, 2, 4 and 7 days): little effect
- activity against cancer cells (cancer cells): active against cancer cells
- cell growth (prostate cancer cells): inhibits
- colony formation (prostate cancer cells): inhibits
- invasion (prostate cancer cells): inhibits
- migration (prostate cancer cells): inhibits
- enhancement of the effect of abiraterone on growth or viability [6]: enhances the effect of arbiraterone
- cell migration or invasion (LNCaP-s17 cells [7]): inhibits cell migration or invasion
- PSA levels (ELISA) (PSA [8]): significantly inhibited PSA levels
- colony formation (C4-2B MR cells [9]; [18]): significantly inhibited colony formation; also recorded: inhibited colony formation in a dose dependent manner
- colony size (C4-2B MR cells [9]; [18]): significantly inhibited the colony size
- colony formation (C4-2B MR cells [9]; C42B MR cells, 0.25 μM niclosamide (FIGS. 37 and 38)): significantly inhibits colony formation
- enhancement of enzalutamide inhibition of colony formation (C4-2B MR cells [9]; C42B MR cells, 0.25 μM niclosamide with 20 μM enzalutamide): significantly enhances enzalutamide inhibition of colony formation
- cell migration or invasion (LNCaP-STAT3C cells): inhibits cell migration or invasion
- STAT3 expression (STAT3 [10]): able to inhibit STAT3 expression
- enhancement of the effect of enzalutamide on growth or viability (C4-2B and C4-2B MR cells): enhances the effect of enzalutamide
- viability of normal cells (normal cells): minimal effects on the viability of normal cells
- cancer cell metastasis and migration [11]: inhibit cancer cell metastasis and migration in vitro and in vivo
- colony formation (CWR22rv1 cells [12]; CWR22rv1 cells, 0, 0.5 μM or 1.0 μM niclosamide): inhibited colony formation in a dose dependent manner
- enhancement of enzalutamide inhibition of colony formation (CWR22rv1 cells [12]; CWR22rv1 cells, 0.25 μM niclosamide with 20 μM enzalutamide): significantly enhances enzalutamide inhibition of colony formation
- enhancement of bicalutamide effects in vitro (CWR22rv1 cells [13]): significantly enhanced bicalutamide effects
- cell growth [14]: significantly inhibited cell growth
- cell growth [15]: little effects
- clonogenic ability [16]: significantly inhibited clonogenic ability of prostate cancer cells in a dose dependent manner
- cell apoptosis (cell death ELISA) [17]: significantly induced cell apoptosis
- cell apoptosis (cell death ELISA) (pz-HPV7 cells): little effect

Source: patent publication US11215617B2, “Treatment of metastatic prostate cancer” (The Regents of the University of California, priority 2013, dated 2022)
